What was measured:
[1] = system: male rats; test: Open field test after BNST infusion, PACAP-induced anxiety-related behavior; assay type: in vivo, rat; conditions: FIG. 8
From the text: Compound I-1 blocks PACAP-induced anxiety-related behavior. In FIG. 8, male rats were cannulated bilaterally into the BNST. […] PACAP infusions into the BNST produced stress/anxiety-like responses as reflected by decreased center field times (duration in seconds). […] In the right panel, the open field entry data was not affected by changes in animal locomotion. Asterisk, statistically different from other groups. Note: I-1+PACAP returned open field times to untreated control levels.

[2] = biological target: T1, PAC1 receptor (Homo sapiens, UniProt P41586); test: PACAP-stimulated PAC1-EGFP receptor internalization in stable HEK cell line; assay type: cell-based
T1 construct: expressed in transfected cells
T1 sequence (P41586 21-468): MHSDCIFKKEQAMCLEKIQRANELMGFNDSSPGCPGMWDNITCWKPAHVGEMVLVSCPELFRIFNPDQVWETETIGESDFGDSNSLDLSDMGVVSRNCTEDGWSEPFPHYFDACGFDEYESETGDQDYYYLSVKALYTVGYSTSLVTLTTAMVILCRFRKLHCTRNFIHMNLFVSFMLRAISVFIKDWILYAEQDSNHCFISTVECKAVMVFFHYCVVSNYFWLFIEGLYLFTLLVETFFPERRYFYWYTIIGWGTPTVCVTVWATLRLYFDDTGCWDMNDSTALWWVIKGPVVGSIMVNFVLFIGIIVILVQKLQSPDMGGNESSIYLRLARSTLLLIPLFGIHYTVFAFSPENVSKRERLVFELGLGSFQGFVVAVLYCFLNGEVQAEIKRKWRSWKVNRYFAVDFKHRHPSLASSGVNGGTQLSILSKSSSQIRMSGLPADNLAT
Procedure: (§1) Compound I-1 blocks PAC1 receptor internalization and calcium signaling. […] Upon 25 nM PACAP application (15 min), the tagged receptor is internalized into intracellular endosomes for ERK signaling (PACAP, middle panel). However, pretreatment of the culture (15 min) with 10-25 μM I-1 blocked PACAP-stimulated receptor internalization (PACAP+I-1); the PAC1-EGFP receptors remained on the cell surface. In FIG. 2, using the same HEK PAC1-EGFP cell line, PACAP rapidly stimulated calcium signaling in Fura-2 assays. The response was blocked approximately 50% with 2.5 μM compound I-1, and was abolished with 25 μM I-1.

[3] = biological target: T1, PAC1 receptor; test: PACAP-stimulated ERK phosphorylation/activation in HEK PAC1-EGFP receptor cell line; assay type: cell-based; conditions: for PAC1 receptor endosomal/ligand-mediated ERK activation: concentration not given
Procedure: In FIG. 3, using the stably expressing HEK PAC1-EGFP receptor cell line, compound I-1 blocks 25 nM PACAP-stimulated ERK phosphorylation and activation (p42 and p44 ERK bands) in a dose-dependent manner. […] In similar assays, the other compounds (I-2 to I-26) can block PACAP-stimulated ERK signaling with an apparent IC50 of 25 μM.
In FIG. 5, the compound I-20 acts as a glucagon receptor (GCGR) antagonist by binding to an extra-helical allosteric site on the receptor. […] In FIG. 6, the addition of compound I-20 can increase the efficacy and potency of […] inhibiting PACAP-stimulated ERK activation.
In FIG. 7, all samples were pretreated with 25 μM acyl hydrazide before 25 nM PACAP application. Glucagon antagonist is I-20. Data normalized to total cellular ERK not shown.

[4] = biological target: T1, PAC1 receptor; test: PACAP-stimulated calcium signaling, Fura-2 assay in HEK PAC1-EGFP cell line; assay type: cell-based; conditions: for PAC1 receptor-mediated calcium flux: concentration not given
Procedure: as §1
The PAC1-EGFP HEK cell lines were preloaded with Fura-2 for calcium imaging. PACAP alone produced robust calcium signals.

`O=C(N/N=C/c1cccc2c1ccn2Cc1cc(F)cc(F)c1)c1ccc(O)c(Cl)c1` [Compound I-1, (E)-3-chloro-N′-((1-(3,5-difluorobenzyl)-1H-indol-4-yl)methylene)-4-hydroxybenzohydrazide] was tested, and the “Open field center field time, compound alone compared to control” value ([1]; 5-10 μM infusion into the BNST, no PACAP) was “no apparent effects”, the “PACAP-induced stress/anxiety responses (open field center field time)” value ([1]; BNST preinjection of compound before PACAP infusion) was “completely blocked” and the PACAP-stimulated receptor internalization ([2]; 15 min pretreatment with 10-25 μM compound, 25 nM PACAP, 15 min, FIG. 1) was “blocked”. For the same molecule, the “PACAP-stimulated ERK activation” value ([3]; 25 μM compound, 25 nM PACAP, FIG. 3) was “near control levels”, the IC50 ([3]; normalized to total ERK levels, approximate/apparent, FIG. 4, read-out: IC50 in inhibiting PACAP-stimulated ERK activation) was 8 to 10 µM and the “PACAP-stimulated calcium signal blocked” value ([4]; 2.5 μM compound) was “approximately 50%”. For the same molecule, the PACAP-stimulated calcium signal/flux ([4]; 25 μM compound) was “abolished”.

`Cc1cc(C)c(C)c(Cn2ccc3c(/C=N/NC(=O)c4ccc(O)c(Cl)c4)cccc32)c1C` [Compound I-19, (E)-3-chloro-4-hydroxy-N′-((1-(2,3,5,6-tetramethylbenzyl)-1H-indol-4-yl)methylene)benzohydrazide] was tested, and the “PAC1 receptor endosomal/ligand-mediated ERK activation” value [3] was “without apparent effects” and the “PAC1 receptor-mediated calcium flux” value [4] was “completely blocking”.

`COc1ccc2cc(-c3cc(-c4cc(Cl)cc(Cl)c4)nn3C(C)c3ccc(C(=O)NCCC(=O)O)cc3)ccc2c1` (stereo not drawn) [Compound I-20] was tested, and the ERK activation attenuated ([3]; 25 μM compound, FIG. 5) was “approximately 50%”, the “Antagonism at the PAC1-receptor compared to I-1” value ([3]; FIG. 5) was “weak antagonist” and the “PACAP-stimulated ERK activation, combination” value ([3]; I-20 together with 10 μM I-1, FIG. 6) was “basal or near-basal levels”.

For `O=C(N/N=C/c1cccc2c1ccn2Cc1cccc(C(F)(F)F)c1)c1ccc(O)c(Cl)c1` [Compound I-21, reference compound], the PAC1 receptor internalization ([2]; concentration not given) was “modest effects”, the “PAC1 receptor endosomal/ligand-mediated ERK activation” value [3] was “modest effects” and the “PAC1 receptor-mediated calcium flux” value [4] was “attenuate”.
